In brackets after ≈: the same amount, converted by molar mass. Positions of bridges follow the written chain, without caps; N, C: chain ends. Residues, ends and D or L forms follow the SMILES beside them. Chains are numbered I, II in the order given. *: point of attachment. Lauroyl = CCCCCCCCCCCC(=O)*; Decanoyl = CCCCCCCCCC(=O)*; Octanoyl = CCCCCCCC(=O)*; Hexanoyl = CCCCCC(=O)*; Butyryl = CCCC(=O)*

Series [1] deals with Klebsiella pneumoniae DM4299. Type of series: cell-based. The procedure: (§1) V2-dimer and all lipopeptides (FIG. 1A) used in this study were purchased from Mimotopes. All peptides were prepared by dissolving in sterile water to make 1000 μg/mL stock solutions. Minimum Inhibitory Concentration (MIC) determination was carried out in Mueller Hinton Broth (MHB) using the broth macro-dilution method as described by the Clinical and Laboratory Standards Institute (CLSI). Then, cation-adjusted MHB (CA-MHB) was used to prepare serial two fold dilutions of the compounds in test tubes. The concentration of the inoculums suspension was also adjusted to approximately 5×10^5 Colony Forming Units (CFU)/mL using MHB. Bacteria were incubated with the compounds for 24 hours at 35° C. prior to reading. In this study, Gram-positive strains used were Staphylococcus aureus DM4001 and Methicillin-resistant Staphylococcus aureus (MRSA) DM9808. Gram-negative strains used were Klebsiella pneumoniae DM4299, Pseudomonas aeruginosa ATCC23155 and Escherichia coli ATCC27922.

The test system of series [2] is Methicillin-resistant Staphylococcus aureus (MRSA). The class given is cell-based. How it is done: as §1
(§2) Methods used are as described in Example 1 above.

For the next series, the system named is Staphylococcus aureus. Type of series: cell-based. The procedure:
as §1, §2

For another series, the system named is Pseudomonas aeruginosa. The class given is cell-based. How it is done: as §1, §2
Series [3] has as its system Escherichia coli ATCC27922. The class given is cell-based. How it is done:
as §1

In series [4] the test system is red blood cells (RBCs) of New Zealand white rabbits. The series can be described thus: in vitro. Type of series: cell-based, rabbit. The settings on record: red cells of rabbit, 1 h. How it is done: Fresh red blood cells (RBCs) of New Zealand white rabbits were used for this experiment. The RBCs obtained were centrifuged at 3000 rpm for 10 min. Supernatant was removed and washed twice with sterile PBS Buffer (20 mM, 100 mM NaCl, pH 7). The RBCs were further diluted to 8% stock solution in PBS. Peptides were dissolved in PBS with desired stock concentrations. When compounds were mixed with RBCs, desired concentration of 4% RBCs was obtained. For C14V2D and C16V2D, they were dissolved in Dimethylformamide ([…]; DMF) with desired stock concentrations. When compounds were mixed with RBCs, desired concentration of 4% RBCs and 0.5% DMF was obtained. DMF concentration of <1% was used as it had negligible hemolytic activity on RBCs. The mixtures were added to 1.5 mL centrifuge tubes and incubated at 37° C. for 1 h. After incubation, the blood was centrifuged at 3000 rpm for 3 min at 4° C. 100 μL of the supernatant was transferred into transparent 96-well plate. The absorbance was measured at 576 nm using a microplate reader (TECAN Infinite 200M Pro). 2% Triton X-100 was used as positive control. PBS was used as negative controls. The amount of hemoglobin released was calculated using the following equation: […]

Broadly, the MIC is the least concentration at which growth counts as inhibited. The low end stands for greater potency, the high end for weaker potency. With `CC(=O)N[C@@H](CCCNC(=N)N)C(=O)NCC(=O)N[C@@H](CCCNC(=N)N)C(=O)N[C@@H](CCCCN)C(=O)NCC(=O)NCC(=O)N[C@@H](CCCNC(=N)N)C(=O)N[C@@H](CCCNC(=N)N)C(=O)NCCCC[C@H](NC(=O)[C@H](CCCNC(=N)N)NC(=O)[C@H](CCCNC(=N)N)NC(=O)CNC(=O)CNC(=O)[C@H](CCCCN)NC(=O)[C@H](CCCNC(=N)N)NC(=O)CNC(=O)[C@H](CCCNC(=N)N)NC(C)=O)C(=O)N[C@@H](CCCCN)C(=O)O` [Peptide C2-G2D, (CH3—CO—NH—RGRKGGRR)2KK] (I: Ac-RGRKGGRRKK-OH / II: Ac-RGRKGGRR; amide I:9-II:C; N-terminus and C-terminus assumed), the MIC amounted to 5.66 µM (≈ 12.5 µg/mL) in series [1], 5.66 µM (≈ 12.5 µg/mL) in series [2], 5.52 µM (≈ 12.2 µg/mL) against Staphylococcus aureus and 2.83 µM (≈ 6.24 µg/mL) against Pseudomonas aeruginosa.
Take `CC(=O)N[C@@H](CCCNC(=N)N)C(=O)NCC(=O)N[C@@H](CCCNC(=N)N)C(=O)N[C@@H](CCCCN)C(=O)N[C@H](C(=O)N[C@H](C(=O)N[C@@H](CCCNC(=N)N)C(=O)N[C@@H](CCCNC(=N)N)C(=O)NCCCC[C@H](NC(=O)[C@H](CCCNC(=N)N)NC(=O)[C@H](CCCNC(=N)N)NC(=O)[C@@H](NC(=O)[C@@H](NC(=O)[C@H](CCCCN)NC(=O)[C@H](CCCNC(=N)N)NC(=O)CNC(=O)[C@H](CCCNC(=N)N)NC(C)=O)C(C)C)C(C)C)C(=O)N[C@@H](CCCCN)C(=O)O)C(C)C)C(C)C` [Peptide C2-V2D, (CH3—CO—NH—RGRKVVRR)2KK] (I: Ac-RGRKVVRRKK-OH / II: Ac-RGRKVVRR; amide I:9-II:C): the MIC stood at 2.63 µM (≈ 6.25 µg/mL) in series [3]; 5.26 µM (≈ 12.5 µg/mL) in series [1]; 2.63 µM (≈ 6.25 µg/mL) in series [2]; 5.26 µM (≈ 12.5 µg/mL) against Staphylococcus aureus; 5.26 µM (≈ 12.5 µg/mL) with Pseudomonas aeruginosa. Moreover, in series [4], the HC10 was over 2000 µg/mL.
As for `CCCC(=O)N[C@@H](CCCNC(=N)N)C(=O)NCC(=O)N[C@@H](CCCNC(=N)N)C(=O)N[C@@H](CCCCN)C(=O)NCC(=O)NCC(=O)N[C@@H](CCCNC(=N)N)C(=O)N[C@@H](CCCNC(=N)N)C(=O)NCCCC[C@H](NC(=O)[C@H](CCCNC(=N)N)NC(=O)[C@H](CCCNC(=N)N)NC(=O)CNC(=O)CNC(=O)[C@H](CCCCN)NC(=O)[C@H](CCCNC(=N)N)NC(=O)CNC(=O)[C@H](CCCNC(=N)N)NC(=O)CCC)C(=O)N[C@@H](CCCCN)C(=O)O` [Peptide C4-G2D, (C3H7—CO—NH—RGRKGGRR)2KK] (I: Butyryl-RGRKGGRRKK-OH / II: Butyryl-RGRKGGRR; amide I:9-II:C; N-terminus and C-terminus assumed), the MIC in series [1] was determined as 5.52 µM (≈ 12.5 µg/mL); in series [2], 5.52 µM (≈ 12.5 µg/mL); with Staphylococcus aureus, 5.39 µM (≈ 12.2 µg/mL); in the series with Pseudomonas aeruginosa, 2.76 µM (≈ 6.25 µg/mL).
As for `CCCC(=O)N[C@@H](CCCNC(=N)N)C(=O)NCC(=O)N[C@@H](CCCNC(=N)N)C(=O)N[C@@H](CCCCN)C(=O)N[C@H](C(=O)N[C@H](C(=O)N[C@@H](CCCNC(=N)N)C(=O)N[C@@H](CCCNC(=N)N)C(=O)NCCCC[C@H](NC(=O)[C@H](CCCNC(=N)N)NC(=O)[C@H](CCCNC(=N)N)NC(=O)[C@@H](NC(=O)[C@@H](NC(=O)[C@H](CCCCN)NC(=O)[C@H](CCCNC(=N)N)NC(=O)CNC(=O)[C@H](CCCNC(=N)N)NC(=O)CCC)C(C)C)C(C)C)C(=O)N[C@@H](CCCCN)C(=O)O)C(C)C)C(C)C` [Peptide C4-V2D, (C3H7—CO—NH—RGRKVVRR)2KK] (I: Butyryl-RGRKVVRRKK-OH / II: Butyryl-RGRKVVRR; amide I:9-II:C), the MIC in series [3] turned out to be 2.57 µM (≈ 6.25 µg/mL); in series [1], 5.14 µM (≈ 12.5 µg/mL); in series [2] it was 2.57 µM (≈ 6.25 µg/mL); with Staphylococcus aureus, 2.57 µM (≈ 6.25 µg/mL); in the series with Pseudomonas aeruginosa, 10.28 µM (≈ 25 µg/mL). For the same compound, the HC10 in series [4] is over 2000 µg/mL.
`CCCCCC(=O)N[C@@H](CCCNC(=N)N)C(=O)NCC(=O)N[C@@H](CCCNC(=N)N)C(=O)N[C@@H](CCCCN)C(=O)NCC(=O)NCC(=O)N[C@@H](CCCNC(=N)N)C(=O)N[C@@H](CCCNC(=N)N)C(=O)NCCCC[C@H](NC(=O)[C@H](CCCNC(=N)N)NC(=O)[C@H](CCCNC(=N)N)NC(=O)CNC(=O)CNC(=O)[C@H](CCCCN)NC(=O)[C@H](CCCNC(=N)N)NC(=O)CNC(=O)[C@H](CCCNC(=N)N)NC(=O)CCCCC)C(=O)N[C@@H](CCCCN)C(=O)O` [Peptide C6-G2D, (C5H11—CO—NH—RGRKGGRR)2KK] (I: Hexanoyl-RGRKGGRRKK-OH / II: Hexanoyl-RGRKGGRR; amide I:9-II:C; N-terminus and C-terminus assumed): the MIC is 2.70 µM (≈ 6.26 µg/mL) in series [1], 2.70 µM (≈ 6.26 µg/mL) in series [2], 5.26 µM (≈ 12.2 µg/mL) with Staphylococcus aureus and 5.39 µM (≈ 12.5 µg/mL) in the series on Pseudomonas aeruginosa.
Consider `CCCCCC(=O)N[C@@H](CCCNC(=N)N)C(=O)NCC(=O)N[C@@H](CCCNC(=N)N)C(=O)N[C@@H](CCCCN)C(=O)N[C@H](C(=O)N[C@H](C(=O)N[C@@H](CCCNC(=N)N)C(=O)N[C@@H](CCCNC(=N)N)C(=O)NCCCC[C@H](NC(=O)[C@H](CCCNC(=N)N)NC(=O)[C@H](CCCNC(=N)N)NC(=O)[C@@H](NC(=O)[C@@H](NC(=O)[C@H](CCCCN)NC(=O)[C@H](CCCNC(=N)N)NC(=O)CNC(=O)[C@H](CCCNC(=N)N)NC(=O)CCCCC)C(C)C)C(C)C)C(=O)N[C@@H](CCCCN)C(=O)O)C(C)C)C(C)C` [Peptide C6-V2D, (C5H11—CO—NH—RGRKVVRR)2KK] (I: Hexanoyl-RGRKVVRRKK-OH / II: Hexanoyl-RGRKVVRR; amide I:9-II:C), for which the MIC in series [3] was 2.51 µM (≈ 6.24 µg/mL); in series [1], 5.03 µM (≈ 12.5 µg/mL); in series [2], 1.26 µM (≈ 3.13 µg/mL); in the series on Staphylococcus aureus, 2.51 µM (≈ 6.24 µg/mL); in the series with Pseudomonas aeruginosa it was 5.03 µM (≈ 12.5 µg/mL). This compound also yielded an HC10 in series [4] of over 2000 µg/mL.
Consider `CCCCCCCC(=O)N[C@@H](CCCNC(=N)N)C(=O)NCC(=O)N[C@@H](CCCNC(=N)N)C(=O)N[C@@H](CCCCN)C(=O)NCC(=O)NCC(=O)N[C@@H](CCCNC(=N)N)C(=O)N[C@@H](CCCNC(=N)N)C(=O)NCCCC[C@H](NC(=O)[C@H](CCCNC(=N)N)NC(=O)[C@H](CCCNC(=N)N)NC(=O)CNC(=O)CNC(=O)[C@H](CCCCN)NC(=O)[C@H](CCCNC(=N)N)NC(=O)CNC(=O)[C@H](CCCNC(=N)N)NC(=O)CCCCCCC)C(=O)N[C@@H](CCCCN)C(=O)O` [Peptide C8-G2D, (C7H15—CO—NH—RGRKGGRR)2KK] (I: Octanoyl-RGRKGGRRKK-OH / II: Octanoyl-RGRKGGRR; amide I:9-II:C; N-terminus and C-terminus assumed), for which the MIC in series [1] worked out at 2.63 µM (≈ 6.25 µg/mL); in series [2], 2.63 µM (≈ 6.25 µg/mL); against Staphylococcus aureus it was 2.57 µM (≈ 6.1 µg/mL); in the series with Pseudomonas aeruginosa it was 2.63 µM (≈ 6.25 µg/mL).
On to `CCCCCCCCCC(=O)N[C@@H](CCCNC(=N)N)C(=O)NCC(=O)N[C@@H](CCCNC(=N)N)C(=O)N[C@@H](CCCCN)C(=O)NCC(=O)NCC(=O)N[C@@H](CCCNC(=N)N)C(=O)N[C@@H](CCCNC(=N)N)C(=O)NCCCC[C@H](NC(=O)[C@H](CCCNC(=N)N)NC(=O)[C@H](CCCNC(=N)N)NC(=O)CNC(=O)CNC(=O)[C@H](CCCCN)NC(=O)[C@H](CCCNC(=N)N)NC(=O)CNC(=O)[C@H](CCCNC(=N)N)NC(=O)CCCCCCCCC)C(=O)N[C@@H](CCCCN)C(=O)O` [Peptide C10-G2D, (C9H19—CO—NH—RGRKGGRR)2KK] (I: Decanoyl-RGRKGGRRKK-OH / II: Decanoyl-RGRKGGRR; amide I:9-II:C; N-terminus and C-terminus assumed), for which the minimal inhibitory concentration (MIC) worked out at 2.57 µM (≈ 6.25 µg/mL) in series [1], 2.57 µM (≈ 6.25 µg/mL) in series [2], 2.51 µM (≈ 6.1 µg/mL) against Staphylococcus aureus and 2.57 µM (≈ 6.25 µg/mL) with Pseudomonas aeruginosa.
With `CCCCCCCCCCCC(=O)N[C@@H](CCCNC(=N)N)C(=O)NCC(=O)N[C@@H](CCCNC(=N)N)C(=O)N[C@@H](CCCCN)C(=O)NCC(=O)NCC(=O)N[C@@H](CCCNC(=N)N)C(=O)N[C@@H](CCCNC(=N)N)C(=O)NCCCC[C@H](NC(=O)[C@H](CCCNC(=N)N)NC(=O)[C@H](CCCNC(=N)N)NC(=O)CNC(=O)CNC(=O)[C@H](CCCCN)NC(=O)[C@H](CCCNC(=N)N)NC(=O)CNC(=O)[C@H](CCCNC(=N)N)NC(=O)CCCCCCCCCCC)C(=O)N[C@@H](CCCCN)C(=O)O` [Peptide C12-G2D, (C11H23—CO—NH—RGRKGGRR)2KK] (I: Lauroyl-RGRKGGRRKK-OH / II: Lauroyl-RGRKGGRR; amide I:9-II:C; N-terminus and C-terminus assumed), the MIC in series [1] is 40.21 µM (≈ 100 µg/mL); in series [2], 40.21 µM (≈ 100 µg/mL); against Staphylococcus aureus it was over 40.21 µM; against Pseudomonas aeruginosa, over 40.21 µM.
